Laboratory results reported in US20160030416A1, “METHODS OF TREATING B2-BRADYKININ RECEPTOR MEDIATED ANGIOEDEMA” (SHIRE HUMAN GENETIC THERAPIES, INC., priority 2013, published 2016).
Values after ≈ are worked out from the molar mass of the structure shown.

Assays:
[1] = target: T1, human B2-bradykinin receptor (Homo sapiens, UniProt P30411); test: [3H]bradykinin competition binding assay in HEK 293 cells; parameters: expressed in transfected cells; details: 2 nM [3H]bradykinin, 90-minute incubation
T1 sequence (P30411 1-391): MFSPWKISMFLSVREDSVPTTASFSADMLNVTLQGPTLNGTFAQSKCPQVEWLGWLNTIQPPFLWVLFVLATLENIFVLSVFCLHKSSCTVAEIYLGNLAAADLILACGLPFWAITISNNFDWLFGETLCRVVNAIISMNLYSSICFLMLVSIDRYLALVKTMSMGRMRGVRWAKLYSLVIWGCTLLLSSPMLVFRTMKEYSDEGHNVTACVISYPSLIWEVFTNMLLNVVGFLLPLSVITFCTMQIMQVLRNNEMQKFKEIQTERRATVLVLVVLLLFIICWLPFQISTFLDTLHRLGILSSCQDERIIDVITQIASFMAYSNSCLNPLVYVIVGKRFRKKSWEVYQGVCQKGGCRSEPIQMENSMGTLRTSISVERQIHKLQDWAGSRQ
Protocol: For determination of non-specific binding 1.25 μL of a 10 mM bradykinin (BK) solution was added to 248.8 μL incubation buffer (containing 2 nM [^3H]BK). […] Appropriate controls were prepared in the same method.
Human embryonic kidney (HEK) 293 cells stably express recombinant human B2-bradykinin receptors (10 pmol/mg protein) and were added to 96-well culture-trays and cultivated for 1-3 days, followed by incubation with 100 μL of each of the incubation buffers containing [^3H]BK. After a 90-minute incubation period and washing (4×PBS (phosphate buffered saline)) supernatants of the cell mixtures were transferred to scintillation vials and assayed for [^3H]BK in a beta-counter. Results of counts per minute (cpm) for non-specific binding were subtracted from the total cpm and were used for curve fit and IC50 calculation.

[2] = Physicochemical properties of CFMQ
Protocol: (§1) The physicochemical properties of 1-((4-Chloro-3-(((4-(4-fluoro-1H-pyrazol-1-yl)-2-methylquinolin-8-yl)oxy)methyl)-6-methylpyridin-2-yl)methyl)-2-oxo-1,2-dihydropyridine-3-carbonitrile (CFMQ) were determined using standard methods. CFMQ was a free base with a molecular weight of 514.9 Da and was a nonhygroscopic, crystalline powder with a melting point of about 214° C.

A3 (h) = target: T2, A3 (h) (Homo sapiens, UniProt P0DMS8); test: Off-target receptor binding: A3
T2 construct: expressed in transfected cells; host or cells: CHO or HEK 293 (not assigned per receptor)
T2 sequence (P0DMS8 1-318): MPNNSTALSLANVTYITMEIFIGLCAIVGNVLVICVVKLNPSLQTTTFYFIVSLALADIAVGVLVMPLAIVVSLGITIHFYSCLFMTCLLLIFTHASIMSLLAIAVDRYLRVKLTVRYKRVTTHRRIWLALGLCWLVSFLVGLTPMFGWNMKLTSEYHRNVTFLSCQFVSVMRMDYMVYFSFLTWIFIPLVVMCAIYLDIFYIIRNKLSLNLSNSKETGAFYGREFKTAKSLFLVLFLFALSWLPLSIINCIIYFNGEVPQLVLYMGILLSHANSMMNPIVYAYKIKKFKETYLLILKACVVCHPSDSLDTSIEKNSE
Protocol: To determine the affinity to the B2-bradykinin receptor, CFMQ was compared to a diverse set of receptors and reference agents in an in vitro assay using cells from rat heart, urinary bladder, cerebral cortex, as well as human recombinant cells (CHO and HEK 293) and other cell lines. Each assay included a ligand at a specific concentration (concentration ranging from 0.007-10 nM), in addition to a non-specific ligand (concentration ranging from […]) for incubation periods ranging from 15 minutes to 6 hours at 4°-37° C. The specific binding to the receptors was defined as the difference between the total binding and the nonspecific binding, determined in the presence of an excess of unlabeled CFMQ. The concentration causing a half-maximal inhibition of control specific binding (IC50 values) and inhibition constants (Ki) were determined, and each reference compound was within the accepted limits of the historic average (±0.5 log units).

[3] = Solubility of CFMQ in vehicles; assay type: physicochemical
Protocol: as §1

[4] = Plasma kinetics, intravenous, Sprague-Dawley rats; assay type: in vivo, female Sprague-Dawley rats
Protocol: CFMQ (HGT3711) was administered to fasted female Sprague-Dawley rats by a single intravenous injection at 1.0 mg/kg, formulated in 100% PEG200 (Table 2.6.5.X, Study 10SHIRUSP11). Blood samples were taken via a jugular vein cannula prior to administration and at 0.083 (5 min), 0.25 (15 min), 0.50 (30 min), 1, 2, 4 and 8 hours post dose. Plasma concentrations of CFMQ (HGT3711) were determined by LC-MS/MS and concentrations below the limit of quantitation (1 ng/mL) were assigned a value of zero for pharmacokinetic analysis. Nominal dosing concentrations were used in all calculations.

[5] = In vitro microsomal stability, mini-pig; assay type: in vitro ADME; details: Mini-Pig (Gotting), Male
Protocol: (§2) In vitro metabolic stability studies were performed to determine hepatic stability in vivo. CFMQ was incubated in liver microsomal preparations from mouse, rat, dog, mini-pig, and humans, as well as an additional study with monkey and human. CFMQ was incubated with human and animal liver microsomes at 0.3 mg/mL at 37° C. for 30 or 60 minutes. Additional reference compounds were incubated as controls. Following incubation, samples were analyzed by HPLC-MS/MS.

[6] = In vitro microsomal stability, mouse; assay type: in vitro ADME; details: Mouse (CD-1), Male
Protocol: as §2

[7] = Extrapolation of human oral dose by allometric scaling and pharmacokinetic simulation; details: human equivalent dose of 0.8 mg/kg
Protocol: A pharmacokinetic extrapolation for a human oral dose was performed using allometric scaling of clearance and volume of distribution. The human pharmacokinetic values were extrapolated from in vivo mouse, rat, dog and monkey pharmacokinetic studies. […] This model was based on the assumption that all of the clearance pathways in the human were captured in the pre-clinical species.

[8] = female, Sprague-Dawley, rat, plasma, IV 1 mg/kg

**Q.** Which IC50 [1] does the source give for Cc1cc(Cl)c(COc2cccc3c(-n4cc(F)cn4)cc(C)nc23)c(Cn2cccc(C#N)c2=O)n1 [CFMQ, 1-((4-Chloro-3-(((4-(4-fluoro-1H-pyrazol-1-yl)-2-methylquinolin-8-yl)oxy)methyl)-6-methylpyridin-2-yl)methyl)-2-oxo-1,2-dihydropyridine-3-carbonitrile] here?
**A.** 0.0033 µM

**Q.** What about the pKa1 [2] of the same molecule?
**A.** 3.95

**Q.** And the pKa2 [2]?
**A.** 1.70

**Q.** And the “solubility in acidic environments” value ([2]; acidic environments)?
**A.** greatly enhanced

**Q.** What about the “solubility in aqueous medium” value ([2]; aqueous medium) of the same molecule?
**A.** slight solubility

**Q.** And the logD ([2]; pH = 7.4)?
**A.** 3.47

**Q.** And the solubility ([2]; phosphate buffered saline (PBS), aqueous buffer)?
**A.** 33 µM (≈ 17 µg/mL)

**Q.** What about the IC50 (A3 (h)) of the same molecule?
**A.** 7.6 µM

**Q.** What about the Ki (A3 (h)) of the same molecule?
**A.** 4.5 µM

**Q.** And the nH (A3 (h))?
**A.** 1.4

**Q.** And the inhibition at 10 µM (A3 (h); CFMQ at 10 μM)?
**A.** 53%

**Q.** And the solubility ([3]; 0.1 N HCl, simulated gastric fluid, HCl 0.1N, pH 1.3)?
**A.** 320 µg/mL (≈ 621 µM)

**Q.** What about the solubility ([3]; Labrasol (glyceryl and polyethylene glycol esters), aqueous with cosolvent or surfactant or cyclodextrin) of the same molecule?
**A.** 1430 µg/mL (≈ 2780 µM)

**Q.** And the solubility ([3]; NaOH 0.1N, pH 12.8, aqueous buffer)?
**A.** < 10 µg/mL

**Q.** What about the solubility ([3]; PEG400 (polyethylene glycol 400), organic solvent or mixture) of the same molecule?
**A.** 2370 µg/mL (≈ 4600 µM)

**Q.** What about the solubility ([3]; Tween 20 (polyoxyethylene (20) sorbitan monolaurate), aqueous with cosolvent or surfactant or cyclodextrin) of the same molecule?
**A.** 870 µg/mL (≈ 1690 µM)

**Q.** What about the solubility ([3]; Tween 80 (polyoxyethylene (80) sorbitan monolaurate), aqueous with cosolvent or surfactant or cyclodextrin) of the same molecule?
**A.** 3500 µg/mL (≈ 6800 µM)

**Q.** What about the solubility ([3]; citrate/NaOH buffer, aqueous buffer, Citrate/NaOH pH 2) of the same molecule?
**A.** 20 µg/mL (≈ 38.8 µM)

**Q.** What about the solubility ([3]; citrate/NaOH buffer, aqueous buffer, Citrate/NaOH pH 5) of the same molecule?
**A.** < 10 µg/mL

**Q.** What about the solubility ([3]; ethanol, organic solvent or mixture) of the same molecule?
**A.** 170 µg/mL (≈ 330 µM)

**Q.** What about the solubility ([3]; glycerol, organic solvent or mixture) of the same molecule?
**A.** 10 µg/mL (≈ 19.4 µM)

**Q.** What about the solubility ([3]; olive oil, oil or lipid) of the same molecule?
**A.** < 10 µg/mL

**Q.** And the solubility ([3]; organic solvent or mixture, Acetic acid, glacial)?
**A.** 19900 µg/mL (≈ 38600 µM)

**Q.** What about the solubility ([3]; phosphate buffer, pH 7, aqueous buffer) of the same molecule?
**A.** < 10 µg/mL

**Q.** And the solubility ([3]; propylene glycol, organic solvent or mixture)?
**A.** 100 µg/mL (≈ 194 µM)

**Q.** And the solubility ([3]; water)?
**A.** < 10 µg/mL

**Q.** What about the “clearance as % of liver blood flow in rat (3.3 L/hr/kg)” value ([4]; IV 1 mg/kg) of the same molecule?
**A.** approximately 30%

**Q.** And the “adverse reactions” value ([4]; IV 1.0 mg/kg, rats)?
**A.** no adverse reactions observed

**Q.** What about the AUC(0-inf) [4, 8] of the same molecule?
**A.** 1410 ng·h/mL

**Q.** And the AUC(0-t) [4, 8]?
**A.** 1150 ng·h/mL

**Q.** And the C0 [4, 8]?
**A.** 747 ng/mL

**Q.** What about the Tmax [4, 8] of the same molecule?
**A.** 0 h

**Q.** What about the clearance [4, 8] of the same molecule?
**A.** 15.8 mL/min/kg

**Q.** What about the half-life [4, 8] of the same molecule?
**A.** 2.86 ± 2.54 h

**Q.** What about the concentration at 0 hr ([4]; female, Sprague-Dawley, rat, plasma, IV 1 mg/kg, 0 hr, read-out: Average Concentration of HGT3711) of the same molecule?
**A.** 0 ng/mL

**Q.** And the concentration at 0.083 hr ([4]; female, Sprague-Dawley, rat, plasma, IV 1 mg/kg, 0.083 hr, read-out: Average Concentration of HGT3711)?
**A.** 597 ng/mL

**Q.** What about the concentration at 0.25 hr ([4]; female, Sprague-Dawley, rat, plasma, IV 1 mg/kg, 0.25 hr, read-out: Average Concentration of HGT3711) of the same molecule?
**A.** 401 ng/mL

**Q.** What about the concentration at 0.5 hr ([4]; female, Sprague-Dawley, rat, plasma, IV 1 mg/kg, 0.50 hr, read-out: Average Concentration of HGT3711) of the same molecule?
**A.** 324 ng/mL

**Q.** And the concentration at 1 hr ([4]; female, Sprague-Dawley, rat, plasma, IV 1 mg/kg, 1.0 hr, read-out: Average Concentration of HGT3711)?
**A.** 248 ng/mL

**Q.** What about the concentration at 2 hr ([4]; female, Sprague-Dawley, rat, plasma, IV 1 mg/kg, 2.0 hr, read-out: Average Concentration of HGT3711) of the same molecule?
**A.** 160 ng/mL

**Q.** And the concentration at 4 hr ([4]; female, Sprague-Dawley, rat, plasma, IV 1 mg/kg, 4.0 hr, read-out: Average Concentration of HGT3711)?
**A.** 113 ng/mL

**Q.** And the concentration at 8 hr ([4]; female, Sprague-Dawley, rat, plasma, IV 1 mg/kg, 8.0 hr, read-out: Average Concentration of HGT3711)?
**A.** 36.9 ng/mL

**Q.** What about the Vd ([4]; female, Sprague-Dawley, rat, plasma, IV 1 mg/kg, read-out: Vss) of the same molecule?
**A.** 2.6 ± 1.1 L/kg

**Q.** And the “% Remaining [30 minutes]” value ([5]; 30 minutes)?
**A.** 74%

**Q.** What about the “% Remaining [60 minutes]” value ([5]; 60 minutes) of the same molecule?
**A.** 58%

**Q.** And the “% Remaining [30 minutes]” value ([6]; 30 minutes)?
**A.** 7%

**Q.** And the “% Remaining [60 minutes]” value ([6]; 60 minutes)?
**A.** 3%

**Q.** And the “time plasma levels stay above the predicted efficacious levels” value ([7]; bioavailability 25%)?
**A.** greater than 5 hours

**Q.** What about the “time plasma levels stay above the predicted efficacious levels” value ([7]; bioavailability 50%) of the same molecule?
**A.** > 10 h

**Q.** And the “time plasma levels stay above the predicted efficacious levels” value ([7]; bioavailability 75%)?
**A.** > 12 h
